# Experimental data: patent US6455593B1, “Method of dynamic retardation of cell cycle kinetics to potentiate cell damage” (priority 1995, dated 2002)
# Read-outs that look alike come from different tables or passages of the source.
# How the values were obtained:
# [1] = test system: human promonocytic lymphoma cells (U937); assay: Microculture indicator system (MIS), MTT growth inhibition assay with bivariate serial dilutions; type: cell-based; conditions: for inhibition at 0.01 µg/mL / inhibition at 0.02 µg/mL / inhibition at 0.03 µg/mL / inhibition at 0.06 µg/mL / inhibition at 0.5 µg/mL / inhibition at 1 µg/mL / inhibition at 2 µg/mL / inhibition at 4 µg/mL: Homo sapiens
# In short: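 U937 human promonocytic lymphoma cells were tested in flat-bottom 96-well plates. Two agents were each diluted two-fold by serial mixing, then combined into bivariate dilution series before about 1×10^5 cells per well were added in RPMI 1640 with 10% Nurserum and antibiotics, 100 μl per well. Plates were incubated at 37° C. Thirty μl of 0.5% MTT was then added for 3 hr. Formazan was dissolved overnight with 120 μl of 10 % SDS/0.01 N HCl and absorbance was read at 570 nm against a cell-free blank.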
# [2] = test system: U937 cells; assay: Flow cytometric cell cycle analysis (propidium iodide); type: cell-based, human; conditions: 50 nM STSP, from 4 hours, shown at 8 hr and 24 hours, U937
# Method: Flow cytometric analyses were performed with a Coulter Epics System (purchased from Coulter Corp, Hialeah, Fla.). Cells were disrupted in buffer with 0.1% Triton-X 100 (or 0.6 % NP-40), so that the nuclei could be stained with 0.05% propidium iodide (PI). See Shapiro N M, Practical Flow Cytometry, Man R Liss, NY (1988); Nicoletti I et al., J Immunol Methods 139:271-9 (1991). Analyses of 10,000 nuclei were performed with graduated concentrations of dThd at serial time points. Histograms of PI fluorescent emissions at 675±10 nm were used to discriminate cell cycle fractions of the target population. The proportion of cells in each phase of the cell cycle is represented by stack bars above the X-axis as a fraction of those cells with intact DNA structure. The fraction of cells with depleted DNA in each sample is represented below the X-axis as a percentage of the total cell number. Cells with depleted DNA are presumed apoptotic. Crompton S T et. al. Biophys. Biochem. Res. Comm. 183:532-537 (1992). Each stack bar in FIG. 5 represents the cell cycle distribution of a population sample of >10,000 cells, analyzed for each indicated dThd concentration at indicated treatment times.
# Flow cytometric analyses were performed as in Example 2. The results are shown in plot A of FIG. 5 from Example 2.
# The U937 cells were exposed to a range of concentrations below the IC40 and sampled for flow cytometry at intervals of 8, 16, and 24 hours. Flow cytometric analysis was performed as described in Example 2.
smiles,measurement,setting,value
"C[C@@]1(CO)[C@H](O)CC[C@@]2(C)[C@H]1CC[C@H]1C[C@@H]3C[C@@]12CC[C@]3(O)CO [Aph, aphidicolin]",inhibition at 0.01 µg/mL,"[1]; U-937, 4 h, U937, Aph 0.01 ug/ml 4 H, K252a 0, read-out: MTT % inhibition, Aph only",5%
same,inhibition at 0.02 µg/mL,"[1]; U-937, 4 h, U937, Aph 0.02 ug/ml 4 H, K252a 0, read-out: MTT % inhibition, Aph only",0%
same,inhibition at 0.03 µg/mL,"[1]; U-937, 4 h, U937, Aph 0.03 ug/ml 4 H, K252a 0, read-out: MTT % inhibition, Aph only",1%
same,inhibition at 0.06 µg/mL,"[1]; U-937, 4 h, U937, Aph 0.06 ug/ml 4 H, K252a 0, read-out: MTT % inhibition, Aph only",14%
same,inhibition at 0.5 µg/mL,"[1]; U-937, 4 h, U937, Aph 0.50 ug/ml 4 H, K252a 0, read-out: MTT % inhibition, Aph only",9%
same,inhibition at 1 µg/mL,"[1]; U-937, 4 h, U937, Aph 1.00 ug/ml 4 H, K252a 0, read-out: MTT % inhibition, Aph only",14%
same,inhibition at 2 µg/mL,"[1]; U-937, 4 h, U937, Aph 2.00 ug/ml 4 H, K252a 0, read-out: MTT % inhibition, Aph only",24%
same,inhibition at 4 µg/mL,"[1]; U-937, 4 h, U937, Aph 4.00 ug/ml 4 H, K252a 0, read-out: MTT % inhibition, Aph only",38%
same,inhibition at 0.01 µg/mL,"[1]; U-937, U937, total 18 H, STSP 14 H, Aph 4 H, Aph 0.01 ug/ml, STSP nM by row: r7 100, r8 50, r9 25, r10 12.5, r11 6.25, r12 3.13, r13-r14 0, read-out: Growth inhibition (MTT)",1%
same,inhibition at 0.02 µg/mL,"[1]; U-937, U937, total 18 H, STSP 14 H, Aph 4 H, Aph 0.02 ug/ml, STSP nM by row: r7 100, r8 50, r9 25, r10 12.5, r11 6.25, r12 3.13, r13-r14 0, read-out: Growth inhibition (MTT)",7%
same,inhibition at 0.03 µg/mL,"[1]; U-937, U937, total 18 H, STSP 14 H, Aph 4 H, Aph 0.03 ug/ml, STSP nM by row: r7 100, r8 50, r9 25, r10 12.5, r11 6.25, r12 3.13, r13-r14 0, read-out: Growth inhibition (MTT)",6%
same,inhibition at 0.06 µg/mL,"[1]; U-937, U937, total 18 H, STSP 14 H, Aph 4 H, Aph 0.06 ug/ml, STSP nM by row: r7 100, r8 50, r9 25, r10 12.5, r11 6.25, r12 3.13, r13-r14 0, read-out: Growth inhibition (MTT)",9%
same,inhibition at 0.5 µg/mL,"[1]; U-937, U937, total 18 H, STSP 14 H, Aph 4 H, Aph 0.50 ug/ml, STSP nM by row: r7 100, r8 50, r9 25, r10 12.5, r11 6.25, r12 3.13, r13-r14 0, read-out: Growth inhibition (MTT)",21%
same,inhibition at 1 µg/mL,"[1]; U-937, U937, total 18 H, STSP 14 H, Aph 4 H, Aph 1.00 ug/ml, STSP nM by row: r7 100, r8 50, r9 25, r10 12.5, r11 6.25, r12 3.13, r13-r14 0, read-out: Growth inhibition (MTT)",22%
same,inhibition at 2 µg/mL,"[1]; U-937, U937, total 18 H, STSP 14 H, Aph 4 H, Aph 2.00 ug/ml, STSP nM by row: r7 100, r8 50, r9 25, r10 12.5, r11 6.25, r12 3.13, r13-r14 0, read-out: Growth inhibition (MTT)",31%
same,inhibition at 4 µg/mL,"[1]; U-937, U937, total 18 H, STSP 14 H, Aph 4 H, Aph 4.00 ug/ml, STSP nM by row: r7 100, r8 50, r9 25, r10 12.5, r11 6.25, r12 3.13, r13-r14 0, read-out: Growth inhibition (MTT)",30%
same,Potentiation of DNA damage by STSP as RA,"[1]; U937, concentrations less than IC40, STSP as the TCI",proved successful in potentiating DNA damage by STSP
same,"combined results ratio, Aph only (baseline line)","[1]; U937, Aph alone, every Aph concentration 4.00-0.01 ug/ml",1.0
same,Combined results ratio,"[1]; U937, total 18 H, STSP 14 H, Aph 4 H, Aph 0.01 ug/ml, STSP nM by row: r7 100, r8 50, r9 25, r10 12.5, r11 6.25, r12 3.13, r13-r14 0",1.0
same,Combined results ratio,"[1]; U937, total 18 H, STSP 14 H, Aph 4 H, Aph 0.02 ug/ml, STSP nM by row: r7 100, r8 50, r9 25, r10 12.5, r11 6.25, r12 3.13, r13-r14 0",1.0
same,Combined results ratio,"[1]; U937, total 18 H, STSP 14 H, Aph 4 H, Aph 0.03 ug/ml, STSP nM by row: r7 100, r8 50, r9 25, r10 12.5, r11 6.25, r12 3.13, r13-r14 0",1.0
same,Combined results ratio,"[1]; U937, total 18 H, STSP 14 H, Aph 4 H, Aph 0.06 ug/ml, STSP nM by row: r7 100, r8 50, r9 25, r10 12.5, r11 6.25, r12 3.13, r13-r14 0",1.0
same,Combined results ratio,"[1]; U937, total 18 H, STSP 14 H, Aph 4 H, Aph 0.50 ug/ml, STSP nM by row: r7 100, r8 50, r9 25, r10 12.5, r11 6.25, r12 3.13, r13-r14 0",1.0
same,Combined results ratio,"[1]; U937, total 18 H, STSP 14 H, Aph 4 H, Aph 1.00 ug/ml, STSP nM by row: r7 100, r8 50, r9 25, r10 12.5, r11 6.25, r12 3.13, r13-r14 0",1.0
same,Combined results ratio,"[1]; U937, total 18 H, STSP 14 H, Aph 4 H, Aph 2.00 ug/ml, STSP nM by row: r7 100, r8 50, r9 25, r10 12.5, r11 6.25, r12 3.13, r13-r14 0",1.0
same,Combined results ratio,"[1]; U937, total 18 H, STSP 14 H, Aph 4 H, Aph 4.00 ug/ml, STSP nM by row: r7 100, r8 50, r9 25, r10 12.5, r11 6.25, r12 3.13, r13-r14 0",1.0
"CN[C@@H]1C[C@H]2O[C@@](C)([C@@H]1OC)n1c3ccccc3c3c4c(c5c6ccccc6n2c5c31)C(=O)NC4 [STSP, staurosporine]",Effect on cell cycle distribution,[2],gradually accumulated in the G2 and M phases
